These results are taken from paper PMC9687571, “Anti-Inflammatory Activity of Olive Oil Polyphenols—The Role of Oleacein and Its Metabolites” (Biomedicines, 2022).

For test [1], the target named is PLA2 + 5-LOX coupled system (Apis mellifera, UniProt P00630). Put plainly: biochemical. The class given is biochemical, Apis mellifera bee venom (PLA2), Glycine max (5-LOX). As to conditions: for IC50: read-out: IC50 PLA2 + 5-LOX coupled system; for inhibition at 100 µM: read-out: inhibition of PLA2 + 5-LOX coupled system.
PLA2 + 5-LOX coupled system, sequence (P00630 whole entry, looked up): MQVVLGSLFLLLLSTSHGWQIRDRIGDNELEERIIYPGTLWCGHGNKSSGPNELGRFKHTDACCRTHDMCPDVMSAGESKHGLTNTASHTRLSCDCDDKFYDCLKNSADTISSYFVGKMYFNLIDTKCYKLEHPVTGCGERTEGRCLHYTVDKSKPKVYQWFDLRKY
In test [2] the target is T1, COX-2 (Homo sapiens, UniProt P35354).
T1 construct: purchased Cayman Chemical
T1 sequence (P35354 18-604): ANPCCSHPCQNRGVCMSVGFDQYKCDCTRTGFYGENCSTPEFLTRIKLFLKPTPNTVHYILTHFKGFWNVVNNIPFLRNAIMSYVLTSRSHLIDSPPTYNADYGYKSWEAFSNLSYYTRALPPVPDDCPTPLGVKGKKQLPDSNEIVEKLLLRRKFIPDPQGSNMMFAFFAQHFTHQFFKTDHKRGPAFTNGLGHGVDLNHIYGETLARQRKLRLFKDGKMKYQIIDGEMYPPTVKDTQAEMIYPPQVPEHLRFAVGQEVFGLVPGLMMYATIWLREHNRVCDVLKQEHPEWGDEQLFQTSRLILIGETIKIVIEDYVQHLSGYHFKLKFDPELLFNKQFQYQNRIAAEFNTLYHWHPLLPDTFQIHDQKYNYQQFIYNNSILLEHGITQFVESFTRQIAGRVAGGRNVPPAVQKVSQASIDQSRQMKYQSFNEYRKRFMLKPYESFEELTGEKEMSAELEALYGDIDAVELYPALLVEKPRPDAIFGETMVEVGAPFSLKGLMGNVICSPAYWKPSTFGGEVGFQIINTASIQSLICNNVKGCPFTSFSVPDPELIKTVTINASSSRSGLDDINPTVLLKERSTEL
Put plainly: COX-2 inhibition assay (COX fluorescent inhibitor assay kit). The class given is biochemical. As to the method: (§1) COX assays were performed using the COX fluorescent inhibitor assay kit with some modifications. This assay was based on the reaction between prostaglandin G2 (PGG2), product of COX activity, and 10-acetyl-3,7-dihydroxyphenoxazine (ADHP), producing a highly fluorescent compound, resorufin. Briefly, 60 µL of Tris-HCl buffer (100 mM, pH 8.0), 5 µL of hemin, 5 µL of COX (COX-1 or COX-2) and 5 µL of increasing concentrations of each compound (6.25–100 µM) were added to each well in a black 96-well plate. After 5 min, at room temperature, the reaction started by adding 5 µL of ADHP and 20 µL of substrate (AA 0.5 mM with KOH 2.5 mM) in each well. After 3 min, the fluorescence was measured at 590 nm, setting the excitation wavelength at 535 nm, using a multiplate reader Synergy H1 Biotek. The results were expressed as % of COX inhibition and correspond to the mean ± SEM of four independent assays, each performed in duplicate. SC-560 was used as the positive control for COX-1 and Dup-697 was used as the positive control for COX-2 assay.

Test [3] has as its target T2, COX-1 (Ovis aries, UniProt P05979).
T2 construct: purchased Cayman Chemical
T2 sequence (P05979 25-600): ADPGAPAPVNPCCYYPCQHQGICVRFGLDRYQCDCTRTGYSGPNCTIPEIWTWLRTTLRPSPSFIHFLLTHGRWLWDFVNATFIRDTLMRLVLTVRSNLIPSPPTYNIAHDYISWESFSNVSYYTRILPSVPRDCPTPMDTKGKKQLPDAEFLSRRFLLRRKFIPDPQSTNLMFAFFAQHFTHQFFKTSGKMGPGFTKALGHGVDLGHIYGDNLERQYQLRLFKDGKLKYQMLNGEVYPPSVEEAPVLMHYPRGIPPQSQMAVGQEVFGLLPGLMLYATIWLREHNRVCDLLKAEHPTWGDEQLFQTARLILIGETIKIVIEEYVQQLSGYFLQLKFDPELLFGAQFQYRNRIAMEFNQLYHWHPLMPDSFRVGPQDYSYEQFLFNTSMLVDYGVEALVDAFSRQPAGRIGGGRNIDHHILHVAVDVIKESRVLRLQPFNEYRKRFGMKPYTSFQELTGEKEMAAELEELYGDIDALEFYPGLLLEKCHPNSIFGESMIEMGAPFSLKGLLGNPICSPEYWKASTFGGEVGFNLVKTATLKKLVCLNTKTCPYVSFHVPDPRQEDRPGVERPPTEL
Put plainly: COX-1 inhibition assay (COX fluorescent inhibitor assay kit). The class given is biochemical. Here is the method: as §1

Test [4] concerns the target T3, 5-LOX (Glycine max, UniProt P08170).
T3 construct: purchased Sigma-Aldrich
T3 sequence (P08170 1-839): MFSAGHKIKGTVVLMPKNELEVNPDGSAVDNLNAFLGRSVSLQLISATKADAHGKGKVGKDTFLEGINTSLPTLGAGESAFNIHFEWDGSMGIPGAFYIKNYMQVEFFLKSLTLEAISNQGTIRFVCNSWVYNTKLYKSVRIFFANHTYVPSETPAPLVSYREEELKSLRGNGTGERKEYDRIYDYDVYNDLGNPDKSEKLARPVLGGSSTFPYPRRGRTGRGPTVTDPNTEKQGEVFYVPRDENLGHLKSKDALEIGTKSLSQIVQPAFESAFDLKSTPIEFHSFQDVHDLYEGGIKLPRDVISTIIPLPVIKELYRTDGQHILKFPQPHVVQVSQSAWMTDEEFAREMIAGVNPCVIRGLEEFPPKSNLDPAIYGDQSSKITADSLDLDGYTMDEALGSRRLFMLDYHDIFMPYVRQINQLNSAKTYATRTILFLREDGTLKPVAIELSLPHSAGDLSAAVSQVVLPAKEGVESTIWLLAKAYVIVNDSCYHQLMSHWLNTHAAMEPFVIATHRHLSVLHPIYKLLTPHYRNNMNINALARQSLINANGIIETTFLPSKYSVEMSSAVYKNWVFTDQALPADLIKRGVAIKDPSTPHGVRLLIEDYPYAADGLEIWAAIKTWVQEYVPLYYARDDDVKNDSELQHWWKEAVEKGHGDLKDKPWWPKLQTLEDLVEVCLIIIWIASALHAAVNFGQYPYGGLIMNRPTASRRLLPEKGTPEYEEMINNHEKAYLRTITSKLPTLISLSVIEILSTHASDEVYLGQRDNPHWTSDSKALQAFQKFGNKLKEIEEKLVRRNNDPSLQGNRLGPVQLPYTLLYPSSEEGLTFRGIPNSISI
The test is described as follows: 5-LOX inhibition assay. As to conditions: for IC50: read-out: IC50 5-LOX pure enzyme; for inhibition at 100 µM: read-out: inhibition of the 5-LOX enzyme. The class given is biochemical, Glycine max (soybean).

Several values for one entry are separate records, joined by “and”; a condition that tells them apart may be missing. Identical values can stand only once. Like-named read-outs stand apart in the source and are kept apart here.

As usually defined, the IC50 is the concentration that gives 50% inhibition. A word on the inhibition: it is the relative decrease from the control value, in per cent. Regarding `CC(=O)OCCc1ccc(O)c(O)c1` [AcHyTy, hydroxytyrosol acetate], the 50% inhibitory concentration (IC50) in test [1] came out at 73.5 µM; in test [2] (read-out: IC50 COX-2), 13.3 µM; in test [3], 0.3 µM; in test [4], 107 µM. Further, the inhibition at 100 µM came to 86.1% in test [1] and 49% in test [4].
In the case of `OCCc1ccc(O)c(O)c1` [HyTy, hydroxytyrosol], the inhibition at 100 µM in test [1] stood at 18.6%; in test [4] (100 µM, mean ± SEM), 22.2%. In addition, the IC50 in test [2] (IC50 COX-2) was 2.42 µM and 2.4 µM and < 3 µM; in test [3] it was 0.13 µM.
Take `C/C=C(/C=O)[C@@H](CC=O)CC(=O)OCCc1ccc(O)c(O)c1` [oleacein]: the IC50 in test [1] was 16.1 µM; in test [2] (read-out: IC50 COX-2) it was 1.27 µM and < 3 µM; in test [3] it was 1.46 µM; in test [4], 45 µM. Also, the inhibition at 100 µM in test [1] came out at 100%; in test [4] (100 µM, mean ± SEM), 58.1%. Further, the “inhibitory activity on COX-2, times greater than oleocanthal” value in test [2] (from IC50 1.27 µM versus 16.6 µM) came to 13 times.
Turning to `C/C=C(/C=O)[C@@H](CC=O)CC(=O)OCCc1ccc(O)cc1` [oleocanthal, reference compound], the results for the IC50 in test [2] (read-out: IC50 COX-2) and in test [3] were 16.6 µM and under 0.1 µM, respectively.
With `O=c1c(O)c(-c2ccc(O)c(O)c2)oc2cc(O)cc(O)c12` [quercetin, reference compound], the inhibition at 100 µM in test [4] (100 µM, mean ± SEM) was found to be 59.5%.
